Reference: ChEMBL document CHEMBL5724914, “Linking interpersonal differences in gut microbiota composition and drug biotransformation activity” (2024)

Key:
[1] = (§1) The drug is tested on WLS-090 corresponding to human gut metagenome with ENA study accession number: PRJEB37062 and ENA sample accession number: ERS12561753 for biotransformation under anaerobic condition. The drug concentrations were measured over 9 timepoints collected between 0 and 24 hours of incubation by liquid-chromatography-coupled mass spectrometry (LC–MS); settings: 2 µM
[2] = as §1, with “Z-029” for “WLS-090”, “rat” for “human”, “ERS12561828” for “ERS12561753”; settings: 2 µM
[3] = human gut metagenome, 24 h, 2 µM
[4] = human gut metagenome, 24 h, 2 µM; remark: listed apart in the source
[5] = human gut metagenome, 24 h, 2 µM; remark: listed apart in the source
[6] = as §1, with “WLS-027” for “WLS-090”, “ERS12561744” for “ERS12561753”; settings: 2 µM
[7] = as §1, with “Z-022” for “WLS-090”, “mouse” for “human”, “ERS12561821” for “ERS12561753”; settings: 2 µM
[8] = as §1, with “WLS-038” for “WLS-090”, “ERS12561745” for “ERS12561753”; settings: 2 µM
[9] = as §1, with “Z-011” for “WLS-090”, “mouse” for “human”, “ERS12561811” for “ERS12561753”; settings: 2 µM
Further: call rule not given here.

COc1ccc2c(c1)c(CC(=O)O)c(C)n2C(=O)c1ccc(Cl)cc1 [INDOMETHACIN]
Bacterial Biotransformation [1]: Compound metabolized | Bacterial Biotransformation [2]: Compound NOT metabolized | Bacterial Biotransformation [3]: Compound NOT metabolized | Bacterial Biotransformation [4]: Compound metabolized | Bacterial Biotransformation [5]: Compound metabolized | Bacterial Biotransformation [6]: Compound metabolized | Bacterial Biotransformation [7]: Compound NOT metabolized | Bacterial Biotransformation [8]: Compound metabolized | Bacterial Biotransformation [9]: Compound NOT metabolized

CC(CCc1ccccc1)NCC(O)c1ccc(O)c(C(N)=O)c1 (configuration not stated) [LABETALOL]
Bacterial Biotransformation [1]: Compound metabolized | Bacterial Biotransformation [2]: Compound NOT metabolized | Bacterial Biotransformation [3]: Compound NOT metabolized | Bacterial Biotransformation [4]: Compound metabolized | Bacterial Biotransformation [5]: Compound NOT metabolized | Bacterial Biotransformation [6]: Compound NOT metabolized | Bacterial Biotransformation [7]: Compound metabolized | Bacterial Biotransformation [8]: Compound NOT metabolized | Bacterial Biotransformation [9]: Compound NOT metabolized

Nc1nnc(-c2cccc(Cl)c2Cl)c(N)n1 [LAMOTRIGINE]
Bacterial Biotransformation [1]: Compound metabolized | Bacterial Biotransformation [2]: Compound NOT metabolized | Bacterial Biotransformation [3]: Compound metabolized | Bacterial Biotransformation [4]: Compound metabolized | Bacterial Biotransformation [5]: Compound NOT metabolized | Bacterial Biotransformation [6]: Compound NOT metabolized | Bacterial Biotransformation [7]: Compound NOT metabolized | Bacterial Biotransformation [8]: Compound NOT metabolized | Bacterial Biotransformation [9]: Compound NOT metabolized

OC(c1cc(C(F)(F)F)nc2c(C(F)(F)F)cccc12)C1CCCCN1 (configuration not stated) [MEFLOQUINE]
Bacterial Biotransformation [1]: Compound metabolized | Bacterial Biotransformation [2]: Compound metabolized | Bacterial Biotransformation [3]: Compound metabolized | Bacterial Biotransformation [4]: Compound metabolized | Bacterial Biotransformation [5]: Compound metabolized | Bacterial Biotransformation [6]: Compound metabolized | Bacterial Biotransformation [7]: Compound metabolized | Bacterial Biotransformation [8]: Compound metabolized | Bacterial Biotransformation [9]: Compound metabolized

CC(=O)O[C@]1(C(C)=O)CC[C@H]2[C@@H]3C=C(C)C4=CC(=O)CC[C@]4(C)[C@H]3CC[C@@]21C [MEGESTROL ACETATE]
Bacterial Biotransformation [1]: Compound metabolized | Bacterial Biotransformation [2]: Compound NOT metabolized | Bacterial Biotransformation [3]: Compound NOT metabolized | Bacterial Biotransformation [4]: Compound metabolized | Bacterial Biotransformation [5]: Compound metabolized | Bacterial Biotransformation [6]: Compound metabolized | Bacterial Biotransformation [7]: Compound NOT metabolized | Bacterial Biotransformation [8]: Compound metabolized | Bacterial Biotransformation [9]: Compound metabolized

CC12CC3CC(C)(C1)CC(N)(C3)C2 [MEMANTINE]
Bacterial Biotransformation [1]: Compound metabolized | Bacterial Biotransformation [2]: Compound NOT metabolized | Bacterial Biotransformation [3]: Compound NOT metabolized | Bacterial Biotransformation [4]: Compound NOT metabolized | Bacterial Biotransformation [5]: Compound NOT metabolized | Bacterial Biotransformation [6]: Compound NOT metabolized | Bacterial Biotransformation [7]: Compound metabolized | Bacterial Biotransformation [8]: Compound NOT metabolized | Bacterial Biotransformation [9]: Compound NOT metabolized

Cc1cc(C)cc(OCC2CNC(=O)O2)c1 (configuration not stated) [METAXALONE]
Bacterial Biotransformation [1]: Compound metabolized | Bacterial Biotransformation [2]: Compound NOT metabolized | Bacterial Biotransformation [3]: Compound NOT metabolized | Bacterial Biotransformation [4]: Compound metabolized | Bacterial Biotransformation [5]: Compound metabolized | Bacterial Biotransformation [6]: Compound metabolized | Bacterial Biotransformation [7]: Compound NOT metabolized | Bacterial Biotransformation [8]: Compound metabolized | Bacterial Biotransformation [9]: Compound NOT metabolized

COC(=O)C(c1ccccc1)C1CCCCN1 (configuration not stated) [METHYLPHENIDATE]
Bacterial Biotransformation [1]: Compound metabolized | Bacterial Biotransformation [2]: Compound NOT metabolized | Bacterial Biotransformation [3]: Compound NOT metabolized | Bacterial Biotransformation [4]: Compound metabolized | Bacterial Biotransformation [5]: Compound NOT metabolized | Bacterial Biotransformation [6]: Compound metabolized | Bacterial Biotransformation [7]: Compound NOT metabolized | Bacterial Biotransformation [8]: Compound NOT metabolized | Bacterial Biotransformation [9]: Compound NOT metabolized

CN1CCN2c3ccccc3Cc3ccccc3C2C1 (configuration not stated) [MIANSERIN]
Bacterial Biotransformation [1]: Compound metabolized | Bacterial Biotransformation [2]: Compound NOT metabolized | Bacterial Biotransformation [3]: Compound NOT metabolized | Bacterial Biotransformation [4]: Compound metabolized | Bacterial Biotransformation [5]: Compound NOT metabolized | Bacterial Biotransformation [6]: Compound NOT metabolized | Bacterial Biotransformation [7]: Compound metabolized | Bacterial Biotransformation [8]: Compound NOT metabolized | Bacterial Biotransformation [9]: Compound metabolized

CC#C[C@]1(O)CC[C@H]2[C@@H]3CCC4=CC(=O)CCC4=C3[C@@H](c3ccc(N(C)C)cc3)C[C@@]21C [MIFEPRISTONE]
Bacterial Biotransformation [1]: Compound metabolized | Bacterial Biotransformation [2]: Compound NOT metabolized | Bacterial Biotransformation [3]: Compound metabolized | Bacterial Biotransformation [4]: Compound metabolized | Bacterial Biotransformation [5]: Compound NOT metabolized | Bacterial Biotransformation [6]: Compound metabolized | Bacterial Biotransformation [7]: Compound NOT metabolized | Bacterial Biotransformation [8]: Compound metabolized | Bacterial Biotransformation [9]: Compound metabolized

CC(C)(C)NCC(O)COc1cccc2c1CC(O)C(O)C2 (configuration not stated) [NADOLOL]
Bacterial Biotransformation [1]: Compound metabolized | Bacterial Biotransformation [2]: Compound NOT metabolized | Bacterial Biotransformation [3]: Compound NOT metabolized | Bacterial Biotransformation [4]: Compound metabolized | Bacterial Biotransformation [5]: Compound NOT metabolized | Bacterial Biotransformation [6]: Compound NOT metabolized | Bacterial Biotransformation [7]: Compound metabolized | Bacterial Biotransformation [8]: Compound NOT metabolized | Bacterial Biotransformation [9]: Compound metabolized

CC(C)[C@H]1CC[C@H](C(=O)N[C@H](Cc2ccccc2)C(=O)O)CC1 [NATEGLINIDE]
Bacterial Biotransformation [1]: Compound metabolized | Bacterial Biotransformation [2]: Compound NOT metabolized | Bacterial Biotransformation [3]: Compound metabolized | Bacterial Biotransformation [4]: Compound metabolized | Bacterial Biotransformation [5]: Compound metabolized | Bacterial Biotransformation [6]: Compound metabolized | Bacterial Biotransformation [7]: Compound NOT metabolized | Bacterial Biotransformation [8]: Compound metabolized | Bacterial Biotransformation [9]: Compound metabolized

CN(C)C(=O)Oc1cccc([N+](C)(C)C)c1.[Br-] [NEOSTIGMINE BROMIDE]
Bacterial Biotransformation [1]: Compound NOT metabolized | Bacterial Biotransformation [2]: Compound metabolized | Bacterial Biotransformation [3]: Compound NOT metabolized | Bacterial Biotransformation [4]: Compound NOT metabolized | Bacterial Biotransformation [5]: Compound NOT metabolized | Bacterial Biotransformation [6]: Compound NOT metabolized | Bacterial Biotransformation [7]: Compound NOT metabolized | Bacterial Biotransformation [8]: Compound NOT metabolized | Bacterial Biotransformation [9]: Compound NOT metabolized

Cc1ccccc1C(OCCN(C)C)c1ccccc1.O=C(O)CC(O)(CC(=O)O)C(=O)O (configuration not stated) [ORPHENADRINE CITRATE]
Bacterial Biotransformation [1]: Compound NOT metabolized | Bacterial Biotransformation [2]: Compound NOT metabolized | Bacterial Biotransformation [3]: Compound NOT metabolized | Bacterial Biotransformation [4]: Compound metabolized | Bacterial Biotransformation [5]: Compound NOT metabolized | Bacterial Biotransformation [6]: Compound NOT metabolized | Bacterial Biotransformation [7]: Compound NOT metabolized | Bacterial Biotransformation [8]: Compound NOT metabolized | Bacterial Biotransformation [9]: Compound NOT metabolized

CC(=O)O[C@H]1C(=O)[C@@]2(C)[C@H]([C@H](OC(=O)c3ccccc3)[C@]3(O)C[C@H](OC(=O)[C@H](O)[C@@H](NC(=O)c4ccccc4)c4ccccc4)C(C)=C1C3(C)C)[C@]1(OC(C)=O)CO[C@@H]1C[C@@H]2O [PACLITAXEL]
Bacterial Biotransformation [1]: Compound NOT metabolized | Bacterial Biotransformation [2]: Compound NOT metabolized | Bacterial Biotransformation [3]: Compound NOT metabolized | Bacterial Biotransformation [4]: Compound NOT metabolized | Bacterial Biotransformation [5]: Compound NOT metabolized | Bacterial Biotransformation [6]: Compound metabolized | Bacterial Biotransformation [7]: Compound metabolized | Bacterial Biotransformation [8]: Compound metabolized | Bacterial Biotransformation [9]: Compound metabolized

COc1ccc(Cc2nccc3cc(OC)c(OC)cc23)cc1OC [PAPAVERINE]
Bacterial Biotransformation [1]: Compound metabolized | Bacterial Biotransformation [2]: Compound NOT metabolized | Bacterial Biotransformation [3]: Compound metabolized | Bacterial Biotransformation [4]: Compound metabolized | Bacterial Biotransformation [5]: Compound NOT metabolized | Bacterial Biotransformation [6]: Compound metabolized | Bacterial Biotransformation [7]: Compound metabolized | Bacterial Biotransformation [8]: Compound NOT metabolized | Bacterial Biotransformation [9]: Compound NOT metabolized

CC(=O)CCCCn1c(=O)c2c(ncn2C)n(C)c1=O [PENTOXIFYLLINE]
Bacterial Biotransformation [1]: Compound metabolized | Bacterial Biotransformation [2]: Compound NOT metabolized | Bacterial Biotransformation [3]: Compound NOT metabolized | Bacterial Biotransformation [4]: Compound metabolized | Bacterial Biotransformation [5]: Compound NOT metabolized | Bacterial Biotransformation [6]: Compound NOT metabolized | Bacterial Biotransformation [7]: Compound NOT metabolized | Bacterial Biotransformation [8]: Compound NOT metabolized | Bacterial Biotransformation [9]: Compound NOT metabolized

CCCN1C[C@H](CSC)C[C@@H]2c3cccc4[nH]cc(c34)C[C@H]21.CS(=O)(=O)O [PERGOLIDE MESYLATE]
Bacterial Biotransformation [1]: Compound NOT metabolized | Bacterial Biotransformation [2]: Compound NOT metabolized | Bacterial Biotransformation [3]: Compound NOT metabolized | Bacterial Biotransformation [4]: Compound NOT metabolized | Bacterial Biotransformation [5]: Compound NOT metabolized | Bacterial Biotransformation [6]: Compound NOT metabolized | Bacterial Biotransformation [7]: Compound NOT metabolized | Bacterial Biotransformation [8]: Compound NOT metabolized | Bacterial Biotransformation [9]: Compound NOT metabolized
